Assay [1] addresses T1, turkey β4C-adrenoceptor (tβ4C) (Meleagris gallopavo, UniProt P43141).
T1 construct: expressed in transfected cells
The experiment in a line: cell-based. It is filed as binding.

The target in assay [2] is T2, turkey β3C-adrenoceptor (tβ3C) (Meleagris gallopavo, UniProt A0A803YLI8). As to the kind of experiment: 3H-CGP12177 whole cell binding, CHO tβ3C cells.
Assay [3] addresses T2, turkey β3C-adrenoceptor (tβ3C). As to the kind of experiment: CRE-SPAP production, CHO tβ3C cells. The following applies: CHO tβ3C cells. It is filed as cell-based.
Another assay deals with Human β3-adrenoceptor. The following applies: Human β3, given for comparison; ref 25 and 30; cited from earlier work.
The target of a further assay is Human β2-adrenoceptor. The arrangement: method as in PMID 15655528, PMID 20590599. The following applies: Human β2, given for comparison; ref 25 and 30; cited from earlier work.
Where [4] appears, read: competition with 3H-CGP12177, whole cells, CHO tβ4C, given as log KD, mean ± s.e.m., read-out: Log KD (converted).
Setting [5] is: competition with 3H-CGP12177, whole cells, CHO tβ3C, given as log KD, mean ± s.e.m., read-out: Log KD (converted).
[6] abbreviates: competition with 3H-CGP12177, whole cells, CHO tβ3C, given as log KD, mean ± s.e.m.
Where [7] appears, read: competition with 3H-CGP12177, whole cells, CHO tβ4C, given as log KD, mean ± s.e.m.

Read-outs that look alike come from different tables or passages of the source.

For orientation: Kd means a measure of binding affinity in units of concentration.

T2 sequence (A0A803YLI8 entry or part of it): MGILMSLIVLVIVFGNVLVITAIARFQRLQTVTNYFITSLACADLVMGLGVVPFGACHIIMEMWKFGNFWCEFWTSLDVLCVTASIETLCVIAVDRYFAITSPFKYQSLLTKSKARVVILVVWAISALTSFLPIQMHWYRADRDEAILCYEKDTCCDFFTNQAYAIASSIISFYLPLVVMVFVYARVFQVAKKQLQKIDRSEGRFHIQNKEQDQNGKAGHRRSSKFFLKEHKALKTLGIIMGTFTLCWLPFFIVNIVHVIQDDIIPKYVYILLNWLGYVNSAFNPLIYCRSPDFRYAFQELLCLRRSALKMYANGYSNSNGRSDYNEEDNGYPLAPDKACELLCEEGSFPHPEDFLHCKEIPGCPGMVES
T1 sequence (P43141 whole entry): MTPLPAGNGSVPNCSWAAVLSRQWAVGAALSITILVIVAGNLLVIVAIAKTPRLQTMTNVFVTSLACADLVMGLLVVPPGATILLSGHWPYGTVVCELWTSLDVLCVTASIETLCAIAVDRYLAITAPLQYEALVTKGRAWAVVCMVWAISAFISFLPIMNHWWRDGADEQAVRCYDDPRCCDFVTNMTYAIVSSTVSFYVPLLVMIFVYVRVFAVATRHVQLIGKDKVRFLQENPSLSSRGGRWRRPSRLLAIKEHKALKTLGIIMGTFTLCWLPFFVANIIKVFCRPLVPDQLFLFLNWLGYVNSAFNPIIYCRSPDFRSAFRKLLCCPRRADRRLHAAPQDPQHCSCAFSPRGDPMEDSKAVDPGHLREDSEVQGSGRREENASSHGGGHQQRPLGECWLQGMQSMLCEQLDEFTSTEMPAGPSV

In the case of `COc1ccccc1OCCNCC(O)COc1cccc2[nH]c3ccccc3c12` (stereo not shown) [Carvedilol], the equilibrium dissociation constant (Kd) in assay [1] (setting [4]) is 0.123 nM.
Regarding `Cc1ccc(OCC(O)C(C)NC(C)C)c2c1CCC2` (stereo not shown) [ICI118551], the Kd in assay [2] is 1.17 nM; in assay [3] (Log KD ICI118551, vs agonist BRL37344, CRE-SPAP), 0.49 nM; in assay [3] (Log KD ICI118551, vs agonist CGP12177, CRE-SPAP), 0.316 nM; in assay [3] (Log KD ICI118551, vs agonist adrenaline, CRE-SPAP), 1.62 nM; in assay [3] (Log KD ICI118551, vs agonist cimaterol, CRE-SPAP), 0.398 nM; in assay [3] (Log KD ICI118551, vs agonist clenbuterol, CRE-SPAP), 0.339 nM. Further, the equilibrium dissociation constant (Kd) is 1.15 nM in assay [3] (Log KD ICI118551, vs agonist dobutamine, CRE-SPAP); 0.457 nM in assay [3] (Log KD ICI118551, vs agonist fenoterol, CRE-SPAP); 0.513 nM in assay [3] (Log KD ICI118551, vs agonist formoterol, CRE-SPAP); 2.51 nM in assay [3] (Log KD ICI118551, vs agonist isoprenaline, CRE-SPAP); 1.38 nM in assay [3] (Log KD ICI118551, vs agonist noradrenaline, CRE-SPAP); 0.49 nM in assay [3] (Log KD ICI118551, vs agonist salbutamol, CRE-SPAP). This compound had a Kd in assay [3] (Log KD ICI118551, vs agonist salmeterol, CRE-SPAP) of 0.617 nM.
In the case of `CC(C)NCC(O)COc1ccc(CCOCC2CC2)cc1` (stereo not shown) [Betaxalol], the “Log KD” value at Human β3-adrenoceptor is recorded as −5.97. The Kd in assay [1] (setting [4]) is 575 nM.
Turning to `CC(C)NCC(O)COc1ccc(CC(N)=O)cc1` (stereo not shown) [Atenolol], the Kd in assay [2] (setting [5]) is 17800 nM; in assay [1] (setting [4]) it was 17400 nM.
As for `CC(C)(C)NC[C@H](O)COc1nsnc1N1CCOCC1` [Timolol], the “Log KD” value on Human β3-adrenoceptor is reported as −6.80. For the same compound, the Kd in assay [1] (setting [4]) is 2 nM.
On to `CC(C)NCC(O)COc1cccc2[nH]c3ccccc3c12` (stereo not shown) [Carazolol], for which the Kd is 0.012 nM in assay [2] (setting [5]) and 0.0537 nM in assay [1] (setting [4]). Moreover, the “Log KD” value at Human β3-adrenoceptor is recorded as −8.35.
In the case of `Cn1cc(C(F)(F)F)nc1-c1ccc(OCC(O)CNCCOc2ccc(O)c(C(N)=O)c2)cc1` (stereo not shown) [CGP20712A], the Kd in assay [2] was 3980 nM; in assay [3] (Log KD CGP20712A, vs agonist BRL37344, CRE-SPAP), 3090 nM; in assay [3] (Log KD CGP20712A, vs agonist CGP12177, CRE-SPAP), 2690 nM; in assay [3] (Log KD CGP20712A, vs agonist adrenaline, CRE-SPAP) it was 4570 nM; in assay [3] (Log KD CGP20712A, vs agonist cimaterol, CRE-SPAP), 3470 nM; in assay [3] (Log KD CGP20712A, vs agonist clenbuterol, CRE-SPAP) it was 1780 nM. The Kd was 7410 nM in assay [3] (Log KD CGP20712A, vs agonist dobutamine, CRE-SPAP); 2450 nM in assay [3] (Log KD CGP20712A, vs agonist fenoterol, CRE-SPAP); 3630 nM in assay [3] (Log KD CGP20712A, vs agonist formoterol, CRE-SPAP); 3720 nM in assay [3] (Log KD CGP20712A, vs agonist isoprenaline, CRE-SPAP); 5250 nM in assay [3] (Log KD CGP20712A, vs agonist noradrenaline, CRE-SPAP); 3240 nM in assay [3] (Log KD CGP20712A, vs agonist salbutamol, CRE-SPAP). This compound gave a dissociation constant (Kd) in assay [3] (Log KD CGP20712A, vs agonist salmeterol, CRE-SPAP) of 6310 nM.
For `O=C(O)COc1ccc(OCCNC[C@H](O)COc2ccccc2)cc1` [ICI215001], the results for the “Log KD” value (in assay [2] (setting [6]); at Human β3-adrenoceptor; in assay [1] (setting [7])) were −5.31±0.09, −6.63 and −6.55±0.06, respectively.
On to `COCCc1ccc(OCC(O)CNC(C)C)cc1` (stereo not shown) [Metoprolol], for which the figures for the Kd in assay [2] and in assay [1] were 1100 nM and 1660 nM, respectively.
As for `CCc1ccccc1OC[C@@H](O)CN[C@H]1CCCc2ccccc21.O=C(O)C(=O)O` [SR59230A, 3-(2-Ethylphenoxy)-1-[(1,S)-1,2,3,4-tetrahydronapth-1-ylamino]-2S-2-propanol oxalate], the “Log KD” value in assay [2] (setting [6]) is reported as −7.96±0.08; at Human β3-adrenoceptor, −7.37; in assay [1] (setting [7]), −7.65±0.06; on Human β2-adrenoceptor it was −8.45.
On to `CC(C)(C)NCC(O)c1cc(O)cc(O)c1` (stereo not shown) [Terbutaline], for which the equilibrium dissociation constant (Kd) is 2400 nM in assay [2] and 33900 nM in assay [1] (setting [4]).
With `CCCC(=O)Nc1ccc(OCC(O)CNC(C)C)c(C(C)=O)c1` (stereo not shown) [Acebutolol], the Kd was 4070 nM in assay [2] (setting [5]) and 3890 nM in assay [1] (setting [4]).
For `C=CCc1ccccc1OCC(O)CNC(C)C` (stereo not shown) [Alprenolol], the Kd was 3.63 nM in assay [2] and 14.1 nM in assay [1] (setting [4]). The “Log KD” value at Human β3-adrenoceptor is −6.93.
Regarding `CC(C)NCC(O)COc1ccc(COCCOC(C)C)cc1` (stereo not shown) [Bisoprolol], the Kd in assay [2] (setting [5]) is 2630 nM; in assay [1] (setting [4]), 550 nM.
As for `CC(C)NCC(O)COc1cccc2[nH]ccc12` (stereo not shown) [Pindolol], the equilibrium dissociation constant (Kd) is 1.95 nM in assay [2] and 5.25 nM in assay [1] (setting [4]).
With `CC(CCc1ccccc1)NCC(O)c1ccc(O)c(C(N)=O)c1` (stereo not shown) [Labetolol], the entries for the “Log KD” value (in assay [2] (setting [6]); at Human β3-adrenoceptor; in assay [1] (setting [7])) were −7.42±0.04, −6.18 and −7.70±0.04, respectively.
Turning to `O=C(NCCNCC(O)COc1ccc(O)cc1)N1CCOCC1` (stereo not shown) [Xamoterol], the results for the Kd in assay [2] and in assay [1] were 2290 nM and 589 nM, respectively.
In the case of `CC(C)NCC(O)c1ccc(NS(C)(=O)=O)cc1` (stereo not shown) [Sotalol], the Kd in assay [2] (setting [5]) was 537 nM; in assay [1] (setting [4]), 692 nM. Also, at Human β3-adrenoceptor, the “Log KD” value is −5.05.

The record behind these values is PMC2994877, “A Full Pharmacological Analysis of the Three Turkey β-Adrenoceptors and Comparison with the Human β-Adrenoceptors” (PLoS ONE, 2010).
